Laboratory results reported in EP4219453A1 (Sichuan Kelun-Biotech Biopharmaceutical Co., Ltd., priority 2020, dated 2022).
Read-outs that look alike come from different tables or passages of the source.

Experiments:
CYP3A4 = target: T1, CYP3A4 (Homo sapiens, UniProt P08684); assay: CYP enzyme inhibition test, P450-Glo CYP3A4 Screening System; assay type: in vitro ADME; details: Luciferin-IPA 3 µM
T1 construct: purchased Promega
Procedure: (§1) Test Example 5: CYP enzyme (Cytocrome P450) inhibition test
(§2) • 1. Test system: • P450-Glo™ CYP1A2 Screening System (Promega); • P450-Glo™ CYP2D6 Screening System (Promega); • P450-Glo™ CYP3A4 Screening System (Promega). • 2. Test instrument: BMG PHERAstar FS Luminescent. • 3. Test method: The test was carried out according to the kit instructions, and the steps were as follows: 3.1. Inhibition of CYP1A2:
(§3) Test group: The test compound of different concentration was added to the microplate, Luciferin-IPA (3 µM), K3PO4 (100 mM) and CYP3A4 (2 nM) were added to each well, and pre-incubated at room temperature for 10 min, followed by an addition of the NADPH regeneration system, and reacted at room temperature for 30 min, an equal volume of detection buffer was added at last, and incubated at room temperature for 20 min, and then chemiluminescence detection was performed.
(§4) Negative control group: The experimental method was the same as that of the test group, but the test compound was not added.
Blank control group: The experimental method was the same as that of the test group, but the test compound was not added, and CYP3A4 Membrance (2 nM) was used instead of CYP3A4.
(§5) The median inhibitory concentration (IC50) or range of the compound was estimated according to the inhibition rate of CYP enzymes at different concentrations: IC50 = X × (1 - percent inhibition rate (%)) / percent inhibition rate (%), wherein X is the test concentration of the compound.

CYP1A2 = target: T2, CYP1A2 (Homo sapiens, UniProt P05177); assay: CYP enzyme inhibition test, P450-Glo CYP1A2 Screening System; assay type: in vitro ADME
T2 construct: purchased Promega
T2 sequence (P05177 1-516): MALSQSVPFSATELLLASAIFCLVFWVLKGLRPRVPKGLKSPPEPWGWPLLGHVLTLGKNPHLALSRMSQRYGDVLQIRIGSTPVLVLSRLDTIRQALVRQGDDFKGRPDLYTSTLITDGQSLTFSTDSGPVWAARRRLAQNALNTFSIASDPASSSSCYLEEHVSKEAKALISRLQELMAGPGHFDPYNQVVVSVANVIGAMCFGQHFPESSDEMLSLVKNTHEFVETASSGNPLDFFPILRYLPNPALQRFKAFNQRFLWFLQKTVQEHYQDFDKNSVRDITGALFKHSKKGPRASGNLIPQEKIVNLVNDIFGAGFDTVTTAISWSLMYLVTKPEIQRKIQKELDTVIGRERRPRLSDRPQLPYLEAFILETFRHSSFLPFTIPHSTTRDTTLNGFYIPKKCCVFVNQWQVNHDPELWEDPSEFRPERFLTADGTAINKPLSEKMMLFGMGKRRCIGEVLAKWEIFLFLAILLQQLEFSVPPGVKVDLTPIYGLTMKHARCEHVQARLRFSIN
Procedure: Test Example 5: CYP enzyme (Cytocrome P450) inhibition test […] Test system: • P450-Glo™ CYP1A2 Screening System (Promega); • P450-Glo™ CYP2D6 Screening System (Promega); • P450-Glo™ CYP3A4 Screening System (Promega). • 2. Test instrument: BMG PHERAstar FS Luminescent. • 3. Test method: The test was carried out according to the kit instructions, and the steps were as follows: 3.1. Inhibition of CYP1A2: Test group: […] Negative control group: The experimental method was the same as that of the test group, but the test compound was not added. Blank control group: […] The median inhibitory concentration (IC50) or range of the compound was estimated according to the inhibition rate of CYP enzymes at different concentrations: […]

hERG = target: T3, hERG (Homo sapiens, UniProt Q12809); assay: Biochemical hERG inhibition test, Predictor hERG fluorescence polarization kit; assay type: binding; details: hERG cell membrane, competition with Tracer 1 nM, 10 µM and 1 µM test compound, 2 h
T3 construct: purchased ThermoFisher
Procedure: Test Example 4: Biochemical hERG inhibition test
• 1. Test system: Kit: Predictor™ hERG fluorescence polarization detection kit (ThermoFisher), the kit contained the following components: positive control compound hERG potassium channel blocker E4031; hERG cell membrane; affinity tracer Tracer; and hERG buffer. • 2. Test parameters: hERG concentration: 1×; Tracer concentration: 1 nM; incubation time: 2 h; BMG PHERAstar FSFP. • 3.
Positive control group: 30 µM positive control compound E4031 was used to replace the test compound, and the experimental method was the same as that of the test group.
Blank control group: hERG buffer was used to replace the test compound without the addition of hERG cell membrane, and the experimental method was the same as that of the test group.
According to the data ratio, the percent inhibition rates (%) of the compounds of the present invention to hERG at different concentrations were calculated, and the ranges of the half inhibitory concentration (IC50) of the compounds were determined.

CYP2D6 = target: T4, CYP2D6 (Homo sapiens, UniProt P10635); assay: CYP enzyme inhibition test, P450-Glo CYP2D6 Screening System; assay type: in vitro ADME; details: Luciferin-ME EGE 3 µM
T4 construct: purchased Promega
Procedure: as §1, §2
as §3, with “the microplate, and Luciferin-ME EGE (3 µM),” for “the microplate, Luciferin-IPA (3 µM),”, “mM) and CYP2D6 (5 nM) were” for “mM) and CYP3A4 (2 nM) were”, “reacted at 37°C for 30” for “reacted at room temperature for 30”
as §4
Blank control group: The experimental method was the same as that of the test group, but the test compound was not added, and CYP2D6 Membrance (5 nM) was used instead of CYP2D6.
as §5

[1] = Luciferin-ME 100 µM, read-out: IC50 (µM) CYP1A2

Measured: IC50

T1 sequence (P08684 whole entry): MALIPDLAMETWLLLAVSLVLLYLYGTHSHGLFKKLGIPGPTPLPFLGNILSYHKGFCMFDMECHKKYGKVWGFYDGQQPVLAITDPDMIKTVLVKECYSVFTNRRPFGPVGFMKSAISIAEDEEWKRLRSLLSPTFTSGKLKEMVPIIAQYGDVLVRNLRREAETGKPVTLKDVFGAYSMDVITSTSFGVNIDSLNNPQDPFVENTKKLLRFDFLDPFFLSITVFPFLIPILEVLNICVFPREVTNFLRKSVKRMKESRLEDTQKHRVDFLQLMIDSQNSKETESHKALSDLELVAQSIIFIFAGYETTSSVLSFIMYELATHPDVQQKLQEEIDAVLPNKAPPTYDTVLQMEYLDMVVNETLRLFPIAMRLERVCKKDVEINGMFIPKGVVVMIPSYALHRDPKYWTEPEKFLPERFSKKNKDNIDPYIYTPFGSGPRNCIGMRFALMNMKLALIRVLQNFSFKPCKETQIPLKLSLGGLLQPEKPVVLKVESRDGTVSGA
T4 sequence (P10635 whole entry): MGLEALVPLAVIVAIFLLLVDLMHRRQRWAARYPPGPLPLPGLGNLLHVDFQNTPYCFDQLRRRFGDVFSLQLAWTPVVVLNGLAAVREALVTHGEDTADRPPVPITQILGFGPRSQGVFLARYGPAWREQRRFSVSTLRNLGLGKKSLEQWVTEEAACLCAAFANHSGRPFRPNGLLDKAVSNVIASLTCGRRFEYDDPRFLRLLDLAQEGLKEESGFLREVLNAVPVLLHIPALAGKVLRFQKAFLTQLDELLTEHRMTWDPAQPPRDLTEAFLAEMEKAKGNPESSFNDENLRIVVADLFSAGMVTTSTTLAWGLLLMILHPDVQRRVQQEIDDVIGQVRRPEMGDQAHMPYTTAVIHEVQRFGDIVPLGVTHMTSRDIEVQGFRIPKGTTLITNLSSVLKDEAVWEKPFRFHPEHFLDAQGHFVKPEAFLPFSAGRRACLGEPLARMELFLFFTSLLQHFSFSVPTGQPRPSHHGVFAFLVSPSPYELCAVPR
T3 sequence (Q12809 whole entry): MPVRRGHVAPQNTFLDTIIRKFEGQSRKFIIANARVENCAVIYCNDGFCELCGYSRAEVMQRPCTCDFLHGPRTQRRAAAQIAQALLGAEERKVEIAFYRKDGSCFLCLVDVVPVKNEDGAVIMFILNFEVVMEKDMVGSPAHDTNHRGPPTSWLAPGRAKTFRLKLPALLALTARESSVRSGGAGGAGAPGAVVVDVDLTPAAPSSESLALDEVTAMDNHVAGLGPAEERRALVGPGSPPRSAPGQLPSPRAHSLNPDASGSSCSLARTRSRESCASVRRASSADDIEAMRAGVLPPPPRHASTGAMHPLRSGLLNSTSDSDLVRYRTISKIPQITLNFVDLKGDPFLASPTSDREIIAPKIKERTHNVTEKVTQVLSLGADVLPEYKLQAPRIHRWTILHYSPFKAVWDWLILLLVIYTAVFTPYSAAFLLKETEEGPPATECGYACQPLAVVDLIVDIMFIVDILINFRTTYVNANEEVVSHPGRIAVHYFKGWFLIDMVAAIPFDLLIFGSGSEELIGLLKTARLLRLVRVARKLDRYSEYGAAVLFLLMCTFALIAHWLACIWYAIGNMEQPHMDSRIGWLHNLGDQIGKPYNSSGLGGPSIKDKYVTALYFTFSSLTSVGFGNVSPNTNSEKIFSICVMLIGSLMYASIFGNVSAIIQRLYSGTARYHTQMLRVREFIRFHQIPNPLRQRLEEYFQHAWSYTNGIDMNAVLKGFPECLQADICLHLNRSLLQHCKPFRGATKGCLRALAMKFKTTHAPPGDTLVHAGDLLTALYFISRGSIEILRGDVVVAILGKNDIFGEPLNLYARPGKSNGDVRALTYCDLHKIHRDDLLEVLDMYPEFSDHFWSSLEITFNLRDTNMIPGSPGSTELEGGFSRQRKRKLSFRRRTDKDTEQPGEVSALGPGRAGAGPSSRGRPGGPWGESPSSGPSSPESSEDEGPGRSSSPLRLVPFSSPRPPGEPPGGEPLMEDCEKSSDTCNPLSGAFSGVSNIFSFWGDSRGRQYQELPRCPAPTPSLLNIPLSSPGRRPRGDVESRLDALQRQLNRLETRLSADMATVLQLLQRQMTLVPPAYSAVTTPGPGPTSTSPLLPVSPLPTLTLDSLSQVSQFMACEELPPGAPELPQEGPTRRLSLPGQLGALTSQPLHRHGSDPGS

Cc1cccc(-n2nc3c(c2-c2ccn4nccc4c2)CCC3)n1 [Example 4, 5-[2-(6-methylpyridin-2-yl)-2,4,5,6-tetrahydrocyclopenteno [c]pyrazol-3-yl]pyrazolo[1,5-a]pyridine]
> 10 µM: CYP3A4 | CYP1A2 | hERG | CYP2D6

Cc1cccc(-n2nc(NCc3ccc(F)cc3)cc2-c2ccn3ncc(C(N)=O)c3c2)n1 [Example 11, 5-(3-(4-fluorobenzylamino)-1-(6-methylpyridin-2-yl)-1H-pyrazol-5-yl)pyrazolo[1,5-a]pyridine-3-carboxamide]
> 10 µM: CYP3A4 | CYP1A2; [1] | hERG | CYP2D6

Cc1cccc(-n2nccc2-c2ccn3ncc(C(N)=O)c3c2)n1 [Example 12, 5-(1-(6-methylpyridin-2-yl)-1H-pyrazol-5-yl)pyrazolo[1,5-a]pyridine-3-carboxamide]
> 10 µM: CYP3A4 | CYP1A2; [1] | hERG | CYP2D6

Cc1cccc(-n2nc(NC(C)c3ccc(F)cc3)cc2-c2ccn3ncc(C(N)=O)c3c2)n1 (stereo not drawn) [Example 10, 5-(3-(1-(4-fluorophenyl)ethylamino)-1-(6-methylpyridin-2-yl)-1H-pyrazol-5-yl)pyridino[1,5-a]pyridine-3-carboxamide]
> 10 µM: CYP3A4 | CYP1A2 | hERG | CYP2D6

CNc1cc(-c2ccn3ncc(C(N)=O)c3c2)n(-c2cccc(C)n2)n1 [Example 8, 5-(3-(methylamino)-1-(6-methylpyridin-2-yl)-1H-pyrazol-5-yl)pyrazolo[1,5-a]pyridine-3-carboxamide]
> 10 µM: CYP3A4 | CYP1A2; [1] | hERG | CYP2D6

Cc1cccc(-n2nc3c(c2-c2ccn4ncc(C(N)=O)c4c2)CCC3)n1 [Example 6, 5-[2-(6-methylpyridin-2-yl)-2,4,5,6-tetrahydrocyclopenteno[c]pyrazol-3-yl]pyrazolo[1,5-a]pyridine-3-carboxamide]
> 10 µM: CYP3A4; 30 min | CYP1A2; Luciferin-ME 100 µM, 30 min, read-out: IC50 (µM) CYP1A2 | hERG | CYP2D6; 30 min
